Format in all cases: biochemical
In one assay the test system is Psychrobacter DNA. Description: PCR amplification using inosine-containing primers. To be noted: primers 75 pmol or 150 pmol, 35 cycles (FIG. 11). On the procedure: Using inosine-containing primers, the difference in PCR amplification was compared. For comparison, KOD mutants and KOD (wild-type), each mixed with 1 μg of a KOD antibody per U of the enzyme, and Taq DNA polymerase mixed with an antibody (a mixture of equal amounts of Taq DNA polymerase (produced by Toyobo Co. Ltd.) and Anti-Taq High (produced by Toyobo Co. Ltd.)) were used.
For PCR with the KOD mutants and PCR with the KOD, a buffer, MgSO4, and dNTPs included in KOD-Plus-Ver. 2 (produced by Toyobo Co. Ltd.) were used. 50 μl of individual reaction solutions containing 1× PCR buffer, 1.5 mM MgSO4, dNTPs (dATP, dTTP, dCTP, dGTP) in an amount of 0.2 mM, primers (SEQ ID NOs: 40 and 41) in an amount of 75 pmol or 150 pmol, 100 ng of Psychrobacter DNA, and 1 U of each respective enzyme mixed with the antibody were used. PCR was performed using a GeneAmp PCR system 9700 (Applied Biosystems) on the following schedule: preliminary reaction at 94° C. for 2 minutes, followed by 35 cycles, each cycle consisting of 98° C. for 10 seconds, 54° C. for 10 seconds, and 68° C. for 1 minute.
For PCR with the Taq DNA polymerase, 50 μl of a reaction solution containing 1× buffer included in Blend Taq (product of Toyobo), dNTPs (dATP, […], dCTP, dGTP) in an amount of 0.2 mM, primers in an amount of 75 pmol or 150 pmol (the same as above), 100 ng of Psychrobacter DNA, and 2.5 U of the enzyme mixed with the antibody was used. PCR was performed using a GeneAmp PCR system 9700 (Applied Biosystems) on the following schedule: preliminary reaction at 94° C. for 2 minutes, followed by 35 cycles, each cycle consisting of 94° C. for 30 seconds, 54° C. for 30 seconds, and 68° C. for 1 minute.
After the completion of each individual reaction, each of the resulting reaction solutions was analyzed using a DNA-1000 kit for MultiNA (produced by Shimadzu Corporation) to confirm amplified DNA fragments.

The subject of assay [1] is 1.3 kbp, 2.8 kbp, and 3.6 kbp of human β-globin. Description: Amplification of long-chain DNA in PCR using dUTP. Also on record: key to Results of PCR in the presence of dUTP 1.3 kbp / Results of PCR in the presence of dUTP 2.8 kbp / Results of PCR in the presence of dUTP 3.6 kbp: A: Amplified; B: Amplified (faint band); C: Not amplified. To be noted: dTTP replaced by dUTP, 35 cycles. In outline:
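Enzymes (1 U, premixed with KOD antibody) amplified 1.3, 2.8 and 3.6 kbp β-globin from 10 ng human genomic DNA with 2 mM dNTPs having dUTP in place of dTTP, 1.5 mM MgSO4, 35 cycles (98° C. 10 s, 65° C. 30 s, 68° C. ~1 min/kbp). Taq control: 2.5 U, 94° C. denaturation. Yield judged by ethidium-stained agarose gel.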

The subject of assay [2] is 0.7 kbp of human β-globin amplified in PCR with dUTP. Description: Degradation with UNG of DNA amplified in the presence of dUTP. Conditions: for degradation with UNG of DNA amplified with the polymerase in the presence of dUTP: 37° C. for 10 minutes (FIG. 13). On the procedure:
It was confirmed whether 0.7 kbp of human β-globin amplified using KOD mutant with reduced uracil sensitivity (N210D/Y7A/P36H) in PCR with dUTP was degraded by being reacted with UNG. For PCR, components included in KOD-Plus-Ver. 2 (produced by Toyobo Co. Ltd.) were used. 50 μl of a reaction solution containing 1× PCR buffer, 1.5 mM MgSO4, dNTPs (dATP, dUTP, dCTP, dGTP) in an amount of 2 mM in which dTTP was replaced by dUTP, primers (SEQ ID NOs: 50 and 51) in an amount of 15 pmol, 10 ng of human genomic DNA (produced by Roche), and 1 U of the enzyme mixed with an antibody was used. PCR was performed using a GeneAmp PCR system 9700 (Applied Biosystems) on the following schedule: preliminary reaction at 94° C. for 2 minutes, followed by 35 cycles, each cycle consisting of 98° C. for 10 seconds, 60° C. for 30 seconds, and 68° C. for 1 minute. The amplification products were diluted with the above-mentioned 1× PCR buffer to 10 ng/μl, 8 μl of the diluted amplification products was mixed with 2 μl of various concentrations of UNG (produced by Roche), and the mixtures were reacted at 37° C. for 10 minutes. After the completion of each individual reaction, each of the mixtures was analyzed using a DNA-1000 kit for MultiNA (produced by Shimadzu Corporation) to confirm the amount of amplification products.

These results are taken from patent publication US20150218534A1, “MODIFIED DNA POLYMERASE” (TOYOBO CO., LTD., priority 2012, published 2015).

For “KOD Y7A/P36H: modified KOD DNA polymerase with Y7A and P36H”, the “amplification with inosine-containing primers” value (“amplification” for short) in the assay on Psychrobacter DNA is “stable amplification was confirmed”. Further, in assay [1], the “Results of PCR in the presence of dUTP 1.3 kbp” value (from here on “Results of PCR … of dUTP 1.3 kbp”) is on record as “A”, the “Results of PCR in the presence of dUTP 2.8 kbp” value (from here on “Results of PCR … of dUTP 2.8 kbp”) is reported as “A” and the “Results of PCR in the presence of dUTP 3.6 kbp” value (from here on “Results of PCR … of dUTP 3.6 kbp”) is on record as “B”. Also, the “degradation with UNG of DNA amplified with the polymerase in the presence of dUTP” value (from here on “degradation with UNG of DNA amplified”) in assay [2] is “the DNA was degraded with UNG”.

With “KOD Y7A/V93K: modified KOD DNA polymerase with Y7A and V93K”, the “amplification” value in the assay on Psychrobacter DNA was “stable amplification was confirmed”. Further, in assay [1], the “Results of PCR … of dUTP 1.3 kbp” value is “A”, the “Results of PCR … of dUTP 2.8 kbp” value is given as “A” and the “Results of PCR … of dUTP 3.6 kbp” value is on record as “B”. The “degradation with UNG of DNA amplified” value in assay [2] is recorded as “the DNA was degraded with UNG”.

Consider “KOD N210D/Y7A/P36H: KOD N210D (exo(−)) mutant with Y7A and P36H”, for which, in the assay with Psychrobacter DNA, the “amplification” value is reported as “stable amplification was confirmed”. In addition, in assay [1], the “Results of PCR … of dUTP 1.3 kbp” value is on record as “A”, the “Results of PCR … of dUTP 2.8 kbp” value was “A” and the “Results of PCR … of dUTP 3.6 kbp” value is reported as “A”. For the same molecule, the “amount of UNG that completely degraded the amplified DNA” value in assay [2] (80 ng of DNA, 37° C. for 10 minutes) was 0.25 U. Further, the “degradation with UNG of DNA amplified” value in assay [2] is recorded as “can be degraded by being reacted with UNG”.

B1: KOD P36H/V93K: modified KOD DNA polymerase with P36H and V93K (protein, listed as Thermococcus kodakaraensis)
chain: MILDTDYITEDGKPVIRIFKKENGEFKIEYDRTFEHYFYALLKDDSAIEEVKKITAERHGTVVTVKRVEKVQKKFLGRPVEVWKLYFTHPQDKPAIRDKIREHPAVIDIYEYDIPFAKRYLIDKGLVPMEGDEELKMLAFDIETLYHEGEEFAEGPILMISYADEEGARVITWKNVDLPYVDVVSTEREMIKRFLRVVKEKDPDVLITYNGDNFDFAYLKKRCEKLGINFALGRDGSEPKIQRMGDRFAVEVKGRIHFDLYPVIRRTINLPTYTLEAVYEAVFGQPKEKVYAEEITTAWETGENLERVARYSMEDAKVTYELGKEFLPMEAQLSRLIGQSLWDVSRSSTGNLVEWFLLRKAYERNELAPNKPDEKELARRRQSYEGGYVKEPERGLWENIVYLDFRSLYPSIIITHNVSPDTLNREGCKEYDVAPQVGHRFCKDFPGFIPSLLGDLLEERQKIKKKMKATIDPIERKLLDYRQRAIKILANSYYGYYGYARARWYCKECAESVTAWGREYITMTIKEIEEKYGFKVIYSDTDGFFATIPGADAETVKKKAMEFLKYINAKLPGALELEYEGFYKRGFFVTKKKYAVIDEEGKITTRGLEIVRRDWSEIAKETQARVLEALLKDGDVEKAVRIVKEVTEKLSKYEVPPEKLVIHEQITRDLKDYKATGPHVAVAKRLAARGVKIRPGTVISYIVLKGSGRIGDRAIPFDEFDPTKHKYDAEYYIENQVLPAVERILRAFGYRKEDLRYQKTRQVGLSAWLKPKGT
As for B1, in assay [1], the “Results of PCR … of dUTP 1.3 kbp” value is “A”, the “Results of PCR … of dUTP 2.8 kbp” value is “A” and the “Results of PCR … of dUTP 3.6 kbp” value is given as “C”.
